Active and inactive are the calls of the source. The rule behind the calls is not given here.
target: Ubiquitin-conjugating enzyme E2 N (Homo sapiens) (UniProt P61088); assay: UBE2N binders by NMR, biophysical, purified protein (AID 1552); settings: NMR binding to purified UBE2N
Sequence (P61088 whole entry, looked up): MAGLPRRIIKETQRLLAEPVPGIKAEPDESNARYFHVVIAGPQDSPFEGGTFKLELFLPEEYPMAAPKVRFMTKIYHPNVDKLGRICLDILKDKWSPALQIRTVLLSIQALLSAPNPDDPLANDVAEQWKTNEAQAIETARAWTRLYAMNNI

SMILES	Kd
Cc1c(N=Cc2ccco2)c(=O)n(-c2ccccc2)n1C	> 4 mM (inactive)
CSc1ccc2nnc(-c3cccnc3)n2n1	> 4 mM (inactive)
Cc1nc2ccccc2c(=O)n1/N=C/c1ccco1	> 4 mM (inactive)
NC(=O)C1(c2ccccc2)CCOCC1	> 4 mM (inactive)
S=c1[nH]cnc2sccc12	> 4 mM (inactive)
C=CC(C1=CC(=O)C(OC)=CC1=O)c1ccccc1 (stereo not given)	> 4 mM (inactive)
Cc1cc(C)nc(N(C#N)Cc2ccccc2)n1	> 4 mM (inactive)
Cc1cc(C)cc(OC(=O)N2CCOCC2)c1	> 4 mM (inactive)
O=C(O)CNCC(O)Cn1c2ccccc2c2ccccc21 (stereo not given)	> 4 mM (inactive)
COc1ccc(NC(=O)CSc2nccc(=O)[nH]2)cc1	> 4 mM (inactive)
c1ccc(-c2nsc(N3CCCNCC3)n2)cc1	> 4 mM (inactive)
CS(=O)(=O)c1ccc(N)cc1	> 4 mM (inactive)
Cc1cc(=O)n2ccc(CN3CCOCC3)c(O)c2n1	> 4 mM (inactive)
OC1CC(c2ccccc2)NC2(CCCC2)C1 (stereo not given)	> 4 mM (inactive)
O=C(Nc1ccccn1)c1cc(-n2cnnc2)ccc1Cl	> 4 mM (inactive)
O=C(Nc1ccncc1)c1c(F)cccc1F	> 4 mM (inactive)
COc1c2c(c(CC=C(C)C)c3oc(=O)c(-c4ccc(O)cc4)c(O)c13)OC(C)(C)C=C2	> 4 mM (inactive)
O=C(NCc1ccco1)c1ccc(Br)s1	> 4 mM (inactive)
COC(=O)C1CCc2ccccc2N1 (stereo not given)	> 4 mM (inactive)
Cc1nc(-c2ccccc2)ncc1C(=O)O	> 4 mM (inactive)
O=C1C=CC2=C3c4cc(O)c(O)cc4CC3(O)COC2=C1O (stereo not given)	> 4 mM (inactive)
Cn1cc(Cl)c(C(=O)Nc2ccncc2)n1	> 4 mM (inactive)
CCOC(=O)C1=C(O)CCN(C)C1	> 4 mM (inactive)
Cn1ncc2c(=O)n(CC(=O)c3ccccc3)cnc21	> 4 mM (inactive)
NC(=O)CSc1nnc2ccc(-c3ccccn3)nn12	> 4 mM (inactive)

SMILES	Kd
Cn1ccc(NC(=S)Nc2cccc([N+](=O)[O-])c2)n1	> 4 mM (inactive)
O=C(c1cccc(C(F)(F)F)c1)N1CCCC1	> 4 mM (inactive)
CCCN1CCC(N2CCC(O)CC2)CC1	> 4 mM (inactive)
Cc1cc(N)on1	> 4 mM (inactive)
S=c1nc(C2CC2)[nH]c2ccccc12	> 4 mM (inactive)
C[C@@H]1CC[C@@]2(OC1)OC1CC3C4CC=C5C[C@@H](O)CC[C@]5(C)C4CC[C@]3(C)C1[C@@H]2C (stereo not given in full)	> 4 mM (inactive)
C(=N\c1ncn[nH]1)/c1cccs1	> 4 mM (inactive)
O=C(CNC(=O)c1ccc(F)cc1)NC1=NCCS1	> 4 mM (inactive)
CC(=O)NC(=S)Nc1ccc(S(N)(=O)=O)cc1	> 4 mM (inactive)
NC(=O)c1ccc(N2CCCCC2)c(N)c1	> 4 mM (inactive)
OCc1ccc(-n2cccn2)cc1	> 4 mM (inactive)
O=C(c1ccco1)N1CCn2c1nc1ccccc12	> 4 mM (inactive)
c1ccc(SCc2nc(-c3cccnc3)no2)cc1	> 4 mM (inactive)
Nc1nc(-c2ccncc2)cs1	> 4 mM (inactive)
CC(=O)c1cc(C)ccc1OC(=O)c1cccnc1	> 4 mM (inactive)
COc1ccc2[nH]cc(CN(C)C)c2c1	> 4 mM (inactive)
CC(C)=CCc1c(O)cc2occ(-c3ccc4c(c3)OCO4)c(=O)c2c1O	> 4 mM (inactive)
O=C(COc1ccccc1)N1CCc2ccccc2C1	> 4 mM (inactive)
Cc1ccc2nc(NC(=O)CN3CCOCC3)sc2c1	> 4 mM (inactive)
O=S1(=O)C=CC(Nc2ccccc2)C1 (stereo not given)	> 4 mM (inactive)
OCc1ccc2c(c1)CCO2	> 4 mM (inactive)
Cc1nc(-c2ccccc2)sc1C(N)=O	> 4 mM (inactive)
Cc1cc(C)n(CC(=O)O)n1	> 4 mM (inactive)
O=C1CSC(=Nc2ccc(C(=O)O)cc2)N1	> 4 mM (inactive)
Cc1ccccc1NC(=S)NCCO	> 4 mM (inactive)

SMILES	Kd
NC(=O)CSc1ccc2nnc(-c3ccccc3)n2n1	> 4 mM (inactive)
COc1cc(OC)c2c(=O)c(-c3ccccc3)coc2c1	> 4 mM (inactive)
COc1ccc2cnn(-c3ccccc3)c(=O)c2c1OC	> 4 mM (inactive)
c1cncc(Nc2nc(-c3cccnc3)cs2)c1	> 4 mM (inactive)
Fc1cccc(Cl)c1CN1CCNCC1	> 4 mM (inactive)
COc1ccc(-c2c(C)n([O-])c(C)c(C)[n+]2=O)cc1	> 4 mM (inactive)
O=c1[nH]nc(Cc2ccccn2)c2ccccc12	> 4 mM (inactive)
CN(c1ccccc1C(=O)N1CCOCC1)S(C)(=O)=O	> 4 mM (inactive)
CC1=C2C(=CO[C@H](C)[C@H]2C)C(=O)C(C(=O)O)=C1O	> 4 mM (inactive)
O=C(O)c1cccnc1-c1nc2ccccc2s1	> 4 mM (inactive)
CC1=CC(=O)CC(C)(C)C1(O)/C=C/C(C)=C\C(=O)O (stereo not given)	> 4 mM (inactive)
NC(=O)c1ccccc1N1CCCCC1	> 4 mM (inactive)
O=c1[nH]cnc2nc[nH]c12	> 4 mM (inactive)
CN(C)N1C(=O)c2ccccc2C1=O	> 4 mM (inactive)
Cc1nc2ccccc2c(=O)n1/N=C/c1ccncc1	> 4 mM (inactive)
NC(=O)Cc1nc2ccccc2[nH]1	> 4 mM (inactive)
Oc1ccccc1-c1nnco1	> 4 mM (inactive)
O=C(Nc1nncs1)c1c(F)c(F)c(F)c(F)c1F	> 4 mM (inactive)
Cc1noc(-c2ccccc2)c1C(=O)O	> 4 mM (inactive)
CCOC(=O)c1c(C)nc2ccccn12	> 4 mM (inactive)
CC(=O)Nc1ccc2c(C)cc(=O)[nH]c2c1	> 4 mM (inactive)
COc1ccc2c3c([nH]c2c1)C(C)=NCC3	> 4 mM (inactive)
Nc1cccc2cccnc12	> 4 mM (inactive)
COc1cc2ccc(=O)oc2c(OC)c1OC	> 4 mM (inactive)
COC(=O)c1cccc(Cn2nnc3ccccc3c2=O)c1	> 4 mM (inactive)

SMILES	Kd
Cn1c(O)c(C=NCC2CCNCC2)c(=O)n(C)c1=O	> 4 mM (inactive)
Cc1ccc(N)nc1	> 4 mM (inactive)
Cc1nn2c(=O)c(NC(=O)c3ccccc3)cnc2s1	> 4 mM (inactive)
N#C/C(=C\c1ccc[nH]1)S(=O)(=O)c1ccccc1	> 4 mM (inactive)
CSc1nsc(SCc2cnc(C)nc2N)n1	> 4 mM (inactive)
Cc1onc(-c2ccccc2)c1C(=O)O	> 4 mM (inactive)
O=C(O)c1ccnc2ccccc12	> 4 mM (inactive)
CCc1cc(=O)[nH]c(SCC(=O)NCCOC)n1	> 4 mM (inactive)
Oc1ccc(C2SCCS2)cc1	> 4 mM (inactive)
CNC(=O)c1cc(C)c(-c2ccccc2)s1	> 4 mM (inactive)
Cc1ccc(CCNc2ccccc2)c[n+]1[O-]	> 4 mM (inactive)
O=C1NC(=O)C(c2ccccc2)C(=O)N1	> 4 mM (inactive)
CC(=O)Nc1ccc(N(C)C(C)=O)cc1	> 4 mM (inactive)
C=C(C)C1(O)OC(=O)C=C1OC (stereo not given)	> 4 mM (inactive)
O=C(O)Cn1nc(-c2ccccc2)c2ccccc2c1=O	> 4 mM (inactive)
O=c1[nH]cc(CN2CCOCC2)c(=O)[nH]1	> 4 mM (inactive)
Oc1ccccc1N1CCOCC1	> 4 mM (inactive)
NCc1csc2ccccc12	> 4 mM (inactive)
NS(=O)(=O)c1ccc(NC(=O)C(F)(F)F)cc1	> 4 mM (inactive)
COC(=O)c1ccccc1N(C)S(C)(=O)=O	> 4 mM (inactive)
C=CCSc1[nH]c(=O)cc(C)c1C(N)=O	> 4 mM (inactive)
O=C1CC(=O)N(c2ccccc2)C(=O)N1	> 4 mM (inactive)
O=C(CC1SC(=O)NC1=O)Nc1ccccc1 (stereo not given)	> 4 mM (inactive)
CN1CCN(C2CCSC2)CC1 (stereo not given)	> 4 mM (inactive)
COc1ccc2[nH]c(O)c(NC(C)=O)c2c1	> 4 mM (inactive)

SMILES	Kd
O=C1NC(=S)N/C1=C\c1cccnc1	> 4 mM (inactive)
CC(C)CCCC(C)C1CCC2C3CC(=O)[C@H]4C[C@@H](O)CC[C@]4(C)C3CC[C@]12C (stereo not given in full)	> 4 mM (inactive)
CN1C(=O)/C(=C\c2ccc[nH]2)SC1=S	> 4 mM (inactive)
O=C(Cc1cccs1)N1CCOCC1	> 4 mM (inactive)
CC(=O)Nc1ccc(S(=O)(=O)NC(N)=O)cc1	> 4 mM (inactive)
CC(C)c1ccc2c(c1)CCC1[C@](C)(CN)CCC[C@]21C (stereo not given in full)	> 4 mM (inactive)
Cn1nnc2cc(C(=O)Nc3cccnc3)ccc21	> 4 mM (inactive)
Cc1[nH]ccc2c1[nH]c1cc(=O)ccc12	> 4 mM (inactive)
Nc1ccc(CCC(=O)O)cc1	> 4 mM (inactive)
COc1c2ccoc2c(OC)c2oc(=O)ccc12	> 4 mM (inactive)
Cc1oc(-c2ccccc2)cc1C(=O)O	> 4 mM (inactive)
OC12C=CC(CC1)CC2	> 4 mM (inactive)
NS(=O)(=O)c1ccc2c(c1)OCCO2	> 4 mM (inactive)
O=c1n(-c2ccccc2)c(=O)n2n1CCCC2	> 4 mM (inactive)
Cc1ccc(C)n1NC(=O)c1cccs1	> 4 mM (inactive)
NCC1CN(Cc2ccccc2)CCO1 (stereo not given)	> 4 mM (inactive)
Cc1cc(C(=O)Nc2sc(C)c(C)c2C#N)no1	> 4 mM (inactive)
Cc1cc(C)n(C/C=C/Cn2nc(C)cc2C)n1	> 4 mM (inactive)
O=C(O)Cc1n[nH]c(=O)c2ccccc12	> 4 mM (inactive)
Oc1ccccc1N1CCCC1	> 4 mM (inactive)
CC[C@@]1(O)C[C@H](O[C@H]2C[C@H](N(C)C)[C@H](O)[C@H](C)O2)c2c(cc3c(c2O)C(=O)c2c(O)cccc2C3=O)[C@H]1C(=O)OC	> 4 mM (inactive)
CC(=O)N1CN(C(C)=O)CN(C(C)=O)C1	> 4 mM (inactive)
CN1CCN(C(=S)c2ccc(N(C)C)cc2)CC1	> 4 mM (inactive)
O=C(NC12CC3CC(CC(C3)C1)C2)c1cnccn1	> 4 mM (inactive)
O=C1CS/C(=N/N=C2CCCC2)N1	> 4 mM (inactive)
